The text below walks through data of patent publication US20250144224A1, “ABL INHIBITORS AND USES THEREOF” (The Regents of the University of California, priority 2021, published 2025).

Series [1] has as its system K562 cells (CRISPR base-edited Bcr-Abl T315I). The series can be described thus: CellTiter-Glo cell viability, K562 Bcr-Abl T315I. As to conditions: Homo sapiens, K562, 72 h, read-out: EC50 (nM) CTG K562 T315I. (ATP-based viability assays read luminescence as a measure of living cells.)
Procedure: (§1) Compounds were tested for ability to inhibit cell growth. K562 cells (wild-type or CRISPR base-edited Bcr-Abl T315I) were plated at 1000 cells/well in 96-well plates and treated with the indicated compounds at the indicated concentrations for three days in triplicate, then tested for cell viability by the CellTiter-Glo 2.0 assay (Promega).
(§2) Compounds were tested for ability to inhibit cell growth. K562 cells (wild-type or CRISPR base-edited Bcr-Abl T315I) were plated at 1000 cells/well in 96-well plates and treated with the indicated compounds at the indicated concentrations for three days in triplicate, then tested for cell viability by the CellTiter-Glo 2.0 assay (Promega). […] Compounds were tested for ability to inhibit cell growth. K562 cells (wild-type or CRISPR base-edited Bcr-Abl T315I) were plated at 1000 cells/well in 96-well plates and treated with the indicated compounds at the indicated concentrations for three days in triplicate, then tested for cell viability by the CellTiter-Glo 2.0 assay (Promega).
(§3) Cells were treated with the indicated concentrations of compound in 9-point 3-fold dilution series (100 μL final volume per well) and incubated at 37° C. for 72 h. Cell viability was assessed by CellTiter-Glo (CTG) Luminescent Cell Viability Assay (Promega). Cells were equilibrated to room temperature before the addition of diluted (1:4 CTG reagent:PBS) CTG reagent (100 μL per well). Plates were agitated on an orbital shaker and luminescence signal was measured on a SpectraMax M5 (Molecular Devices) or Spark (Tecan) plate reader. Repeated measurements of luminescence were performed as technical replicates to determine incubation times optimal for signal-to-noise. Luminescence measurements were normalized to DMSO-treated values to determine relative cell viability.
The subject of another series is K562 cells (wild-type). Nature of the series: CellTiter-Glo cell viability, K562 wild-type. The note with it: Homo sapiens, K562, 72 h, read-out: EC50 (nM) CTG K562 wt.
The next series concerns the target Abl wt (Homo sapiens, UniProt P00519). Nature of the series: SelectScreen Z'LYTE kinase assay, Abl wt.
The target in a further series is Abl_T315I (Homo sapiens, UniProt P00519, T315I). The series can be described thus: SelectScreen Z'LYTE kinase assay, Abl T315I.
Series [2] is described as follows: Parallel artificial membrane permeability assay (PAMPA). The series is classed as in vitro ADME. The method, then:
PAMPA was performed by Quintara Discovery using the BioCoat Pre-coated PAMPA Plate System (Corning) as described previously (15) and based on manufacturer's recommendations. All compounds were assessed at 100 μM in PBS. Compound concentrations in donor and acceptor compartments were quantified using liquid chromatography-mass spectrometry (LC-MS) 5 h following compound addition into the donor compartment.
In general terms: PAMPA measures passive passage across an artificial lipid membrane.

Series [3] has as its system K562 CRISPRi or CRISPRa cells expressing sgRNAs targeting IFITM1-3. Nature of the series: Internally normalized cellular fluorescence uptake assay. As to conditions: 24 h; TAMRA-N3 10 nM, TAMRA-PEG8-N3 1 μM, RapaTAMRA 1 nM.
Procedure: FIGS. 2B-2C: Measurement of fluorescent molecule uptake in K562 CRISPRi (FIG. 2B) or CRISPRa (FIG. 2C) cells expressing sgRNAs (sgRNA+). Cells were incubated with TAMRA-N3 (10 nM), TAMRA-PEG8-N3 (1 μM), or RapaTAMRA (1 nM) for 24 h. Uptake modulation by sgRNAs was quantified by internal normalization to non-transduced cells (sgRNA−) present within the mixture (i.e., relative cellular uptake). Data representative of three biological replicates. FIG. 2D: Changes in uptake of fluorescent molecules by sgRNAs targeting IFITM1-3 as in (FIGS. 2B-2C). […] Data represent means of three biological replicates.
K562 CRISPRi or CRISPRa cells stably expressing sgRNAs marked with BFP mixed at a 1:1 ratio with non-transduced (sgRNA−) cells (20,000 cells in 180 μL per well) were seeded into 96-well round bottom plates and incubated at 37° C. overnight. Cells were treated with fluorescent compounds at the concentrations indicated (200 μL final volume per well) and incubated at 37° C. for 24 h. Cells were pelleted at 500 g, washed twice with ice-cold PBS supplemented with 1% bovine serum albumin (Millipore) and 0.1% NaN3, and resuspended in the same before assessment by flow cytometry on an Attune NxT (Thermo Fisher Scientific). […] Relative cellular uptake was determined by dividing the median TAMRA fluorescence intensity of BFP+ populations by that of BFP—populations (FIG. 2B). […]

Where only a bound is given, the exact number is not on record here.

Procedure for Abl wt: (§4) Biochemical inhibition of BCR-ABL (wild type) and BCR-ABL (T315I). […] Biochemical experiments performed by Thermo SelectScreen, under conditions which mask the effects of allosteric inhibition. Conditions contain 0.01% BRIJ-35, a common non-ionic detergent added to kinase assay buffers.
(§5) Compounds were tested for ability to inhibit wild-type and T315I Abl kinases in vitro at the indicated concentrations by the SelectScreen Z'LYTE assay (Thermo Scientific).
Procedure for Abl_T315I: as §4, §5
Procedure for K562 cells (wild-type): as §1, §2, §3

As to `Cc1nc(Nc2ncc(C(=O)Nc3c(C)cccc3Cl)s2)cc(N2CCN(C(=O)CCOCCOCCOCCOCCOCCOCCOCCOCCOCCOCCNC(=O)C3CCN(c4ncc(C(=O)Nc5ccc(OC(F)(F)Cl)cc5)cc4-c4ccn[nH]4)CC3)CC2)n1` [DasatiLink-2], the EC50 in series [1] is greater than 300 nM; with K562 cells (wild-type) it was 2.49 nM.
For the compound `Cc1nc(Nc2ncc(C(=O)Nc3c(C)cccc3Cl)s2)cc(N2CCN(C(=O)CCOCCOCCOCCOCCOCCOCCOCCOCCNC(=O)C3CCN(c4ncc(C(=O)Nc5ccc(OC(F)(F)Cl)cc5)cc4-c4ccn[nH]4)CC3)CC2)n1` [DasatiLink-3], the concentration giving a half-maximal response (EC50) was greater than 300 nM in series [1], 2.94 nM with K562 cells (wild-type) and 1.04 nM at Abl wt.
As for `Cc1nc(Nc2ncc(C(=O)Nc3c(C)cccc3Cl)s2)cc(N2CCN(C(=O)CCOCCOCCOCCOCCOCCOCCNC(=O)C3CCN(c4ncc(C(=O)Nc5ccc(OC(F)(F)Cl)cc5)cc4-c4ccn[nH]4)CC3)CC2)n1` [DasatiLink-4], the EC50 in series [1] is greater than 300 nM; in the series with K562 cells (wild-type), 2.62 nM; on Abl wt, 1.81 nM.
Consider `Cc1ccc(C(=O)Nc2ccc(CN3CCN(C(=O)CCOCCOCCOCCOCCOCCOCCOCCOCCOCCOCCOCCOCCNC(=O)C4CCN(c5ncc(C(=O)Nc6ccc(OC(F)(F)Cl)cc6)cc5-c5ccn[nH]5)CC4)CC3)c(C(F)(F)F)c2)cc1C#Cc1cnc2cccnn12` [PonatiLink-1-12], for which the concentration giving a half-maximal response (EC50) on Abl_T315I was 3580 nM; in series [1], 43.7 nM; with K562 cells (wild-type), 2.76 nM; at Abl wt, 319 nM.
The matching figures for `Cc1ccc(C(=O)Nc2ccc(CN3CCN(C(=O)CCOCCOCCOCCOCCOCCOCCOCCOCCOCCOCCOCCOCCOCCOCCOCCOCCNC(=O)C4CCN(c5ncc(C(=O)Nc6ccc(OC(F)(F)Cl)cc6)cc5-c5ccn[nH]5)CC4)CC3)c(C(F)(F)F)c2)cc1C#Cc1cnc2cccnn12` [PonatiLink-1-16]: 229 nM, 28.7 nM, 1.4 nM and 82 nM.
As for `Cc1ccc(C(=O)Nc2ccc(CN3CCN(C(=O)CCOCCOCCOCCOCCOCCOCCOCCOCCOCCOCCOCCOCCOCCOCCOCCOCCOCCOCCOCCOCCNC(=O)C4CCN(c5ncc(C(=O)Nc6ccc(OC(F)(F)Cl)cc6)cc5-c5ccn[nH]5)CC4)CC3)c(C(F)(F)F)c2)cc1C#Cc1cnc2cccnn12` [PonatiLink-1-20], the EC50 at Abl_T315I is 215 nM; in series [1], 26.2 nM; in the series with K562 cells (wild-type), 1.02 nM; on Abl wt, 10.8 nM.
In the case of `Cc1ccc(C(=O)Nc2ccc(CN3CCN(C(=O)CCOCCOCCOCCOCCOCCOCCOCCOCCOCCOCCOCCOCCOCCOCCOCCOCCOCCOCCOCCOCCOCCOCCOCCOCCNC(=O)C4CCN(c5ncc(C(=O)Nc6ccc(OC(F)(F)Cl)cc6)cc5-c5ccn[nH]5)CC4)CC3)c(C(F)(F)F)c2)cc1C#Cc1cnc2cccnn12` [PonatiLink-1-24], the EC50 in series [1] was found to be 26.3 nM; in the series on K562 cells (wild-type), 0.87 nM.
The matching figures for `Cc1ccc(C(=O)Nc2ccc(CN3CCN(C(=O)CCOCCOCCOCCOCCOCCOCCOCCOCCOCCOCCOCCOCCOCCOCCOCCOCCOCCOCCOCCOCCOCCOCCOCCOCCOCCOCCOCCOCCNC(=O)C4CCN(c5ncc(C(=O)Nc6ccc(OC(F)(F)Cl)cc6)cc5-c5ccn[nH]5)CC4)CC3)c(C(F)(F)F)c2)cc1C#Cc1cnc2cccnn12` [PonatiLink-1-28]: 49.1 nM and 1.82 nM.
The matching figures for `Cc1ccc(C(=O)Nc2ccc(CN3CCN(C)CC3)c(C(F)(F)F)c2)cc1C#Cc1cnc2cc(OCCOCCOCCOCCOCCOCCOCCNC(=O)CCOCCOCCOCCOCCNC(=O)C3CCN(c4ncc(C(=O)Nc5ccc(OC(F)(F)Cl)cc5)cc4-c4ccn[nH]4)CC3)ccn12` [PonatiLink-2-7-4]: 1.3 nM and 0.39 nM.
Turning to `Cc1ccc(C(=O)Nc2ccc(CN3CCN(C)CC3)c(C(F)(F)F)c2)cc1C#Cc1cnc2cc(OCCOCCOCCOCCOCCOCCOCCNC(=O)CCOCCOCCOCCOCCOCCOCCNC(=O)C3CCN(c4ncc(C(=O)Nc5ccc(OC(F)(F)Cl)cc5)cc4-c4ccn[nH]4)CC3)ccn12` [PonatiLink-2-7-6], the EC50 in series [1] is 1.06 nM; in the series on K562 cells (wild-type), 0.38 nM.
The corresponding values for `Cc1ccc(C(=O)Nc2ccc(CN3CCN(C)CC3)c(C(F)(F)F)c2)cc1C#Cc1cnc2cc(OCCOCCOCCOCCOCCOCCOCCNC(=O)CCOCCOCCOCCOCCOCCOCCOCCOCCNC(=O)C3CCN(c4ncc(C(=O)Nc5ccc(OC(F)(F)Cl)cc5)cc4-c4ccn[nH]4)CC3)ccn12` [PonatiLink-2-7-8] are 0.94 nM and 0.36 nM.
The corresponding values for `Cc1ccc(C(=O)Nc2ccc(CN3CCN(C)CC3)c(C(F)(F)F)c2)cc1C#Cc1cnc2cc(OCCOCCOCCOCCOCCOCCOCCNC(=O)CCOCCOCCOCCOCCOCCOCCOCCOCCOCCOCCNC(=O)C3CCN(c4ncc(C(=O)Nc5ccc(OC(F)(F)Cl)cc5)cc4-c4ccn[nH]4)CC3)ccn12` [PonatiLink-2-7-10] are 0.94 nM and 0.43 nM.
As for `CO[C@@H]1C[C@@H]2CC[C@@H](C)[C@@](O)(O2)C(=O)C(=O)N2CCCC[C@@H]2C(=O)O[C@H]([C@H](C)C[C@H]2CC[C@H](OCCOCc3cn(CCOCCOCCOCCOCCOCCOCCOCCOCCC(=O)NCCCCn4nc(-c5ccc6oc(N)nc6c5)c5c(N)ncnc54)nn3)[C@H](OC)C2)CC(=O)[C@H](C)/C=C(\C)[C@H](O)[C@@H](OC)C(=O)[C@H](C)C[C@H](C)/C=C/C=C/C=C/1C` [RapaLink-1], the “artificial membrane permeability by PAMPA” value in series [2] (PAMPA) is reported as “no measurable permeability”.
For the compound `CO[C@H]1C[C@@H]2CC[C@@H](C)[C@@](O)(O2)C(=O)C(=O)N2CCCC[C@H]2C(=O)O[C@H]([C@H](C)C[C@@H]2CC[C@@H](OCCOCc3cn(CCOCCOCCOCCOCCOCCOCCOCCOCCNC(=O)c4ccc(C(=O)[O-])c(-c5c6ccc(=[N+](C)C)cc-6oc6cc(N(C)C)ccc56)c4)nn3)[C@H](OC)C2)CC(=O)[C@H](C)/C=C(\C)[C@@H](O)[C@@H](OC)C(=O)[C@H](C)C[C@H](C)/C=C/C=C/C=C/1C` [RapaTAMRA], the “change in relative cellular uptake with IFITM1-3 knockdown / overexpression” value in series [3] is “decreased uptake upon knockdown of IFITM1-3 and increased uptake upon overexpression”.
For `O=C(Nc1ccc(OC(F)(F)Cl)cc1)c1cnc(N2CC[C@@H](O)C2)c(-c2ccn[nH]2)c1` [asciminib, reference compound], in series [2] (100 μM in PBS, 5 h, LC-MS), the “artificial membrane permeability by PAMPA” value is reported as “readily permeable”.
The same measure, in the same setting: the result for `Cc1nc(Nc2ncc(C(=O)Nc3c(C)cccc3Cl)s2)cc(N2CCN(CCO)CC2)n1` [dasatinib] reads “readily permeable”.
The same measure, in the same setting: with `CO[C@H]1C[C@@H]2CC[C@@H](C)[C@@](O)(O2)C(=O)C(=O)N2CCCC[C@H]2C(=O)O[C@H]([C@H](C)C[C@@H]2CC[C@@H](O)[C@H](OC)C2)CC(=O)[C@H](C)/C=C(\C)[C@@H](O)[C@@H](OC)C(=O)[C@H](C)C[C@H](C)/C=C/C=C/C=C/1C` [rapamycin] the entry was “readily permeable”.
Same read-out and setting: with `CC(C)n1nc(-c2ccc3oc(N)nc3c2)c2c(N)ncnc21` [sapanisertib] the entry was “readily permeable”.

Broadly, the EC50 is the concentration that produces a half-maximal response.
